PMC9326877 (Journal of Food and Drug Analysis, 2018)

Target: P-glycoprotein (P-gp) (Sus scrofa, UniProt K7GMM7)
Type: in vitro ADME, pig (Sus scrofa domesticus)
Details: Landrace, pig

P-glycoprotein (P-gp), sequence (K7GMM7 1-1248): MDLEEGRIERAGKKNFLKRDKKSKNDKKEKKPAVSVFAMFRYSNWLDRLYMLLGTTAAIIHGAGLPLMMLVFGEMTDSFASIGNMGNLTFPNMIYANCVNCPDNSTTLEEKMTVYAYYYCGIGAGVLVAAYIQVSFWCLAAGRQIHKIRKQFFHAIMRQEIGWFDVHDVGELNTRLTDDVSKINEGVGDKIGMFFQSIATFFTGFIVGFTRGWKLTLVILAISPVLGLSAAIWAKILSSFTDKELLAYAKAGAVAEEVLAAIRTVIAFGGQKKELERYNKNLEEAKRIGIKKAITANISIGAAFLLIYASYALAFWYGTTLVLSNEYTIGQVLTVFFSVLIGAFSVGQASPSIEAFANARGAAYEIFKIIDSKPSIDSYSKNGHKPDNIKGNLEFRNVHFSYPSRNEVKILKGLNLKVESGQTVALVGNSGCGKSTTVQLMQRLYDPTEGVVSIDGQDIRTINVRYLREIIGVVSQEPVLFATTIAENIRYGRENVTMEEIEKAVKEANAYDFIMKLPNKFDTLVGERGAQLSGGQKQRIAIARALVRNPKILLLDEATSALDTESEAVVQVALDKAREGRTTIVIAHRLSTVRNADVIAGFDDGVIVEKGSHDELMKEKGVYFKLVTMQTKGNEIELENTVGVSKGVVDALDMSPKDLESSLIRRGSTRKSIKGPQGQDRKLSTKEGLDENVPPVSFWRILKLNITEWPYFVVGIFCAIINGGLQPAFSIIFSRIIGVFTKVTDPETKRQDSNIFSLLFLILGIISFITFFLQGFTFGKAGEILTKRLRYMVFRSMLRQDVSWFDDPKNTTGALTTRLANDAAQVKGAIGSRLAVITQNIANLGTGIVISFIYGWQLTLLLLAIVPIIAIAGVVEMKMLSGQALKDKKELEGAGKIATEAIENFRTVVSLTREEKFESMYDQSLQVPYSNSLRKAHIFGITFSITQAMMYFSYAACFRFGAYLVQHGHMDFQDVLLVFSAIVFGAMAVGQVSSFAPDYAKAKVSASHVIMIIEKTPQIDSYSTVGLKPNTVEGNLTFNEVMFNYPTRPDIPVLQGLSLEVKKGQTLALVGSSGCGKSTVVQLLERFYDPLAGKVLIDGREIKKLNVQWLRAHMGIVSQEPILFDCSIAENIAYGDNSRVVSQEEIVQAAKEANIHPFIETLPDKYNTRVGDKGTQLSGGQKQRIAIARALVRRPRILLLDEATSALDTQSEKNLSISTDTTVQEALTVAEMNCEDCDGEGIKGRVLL

Compound `COC(=O)c1ccccc1-c1c2ccc(=N)cc-2oc2cc(N)ccc12` [R123, Rhodamine 123] has an efflux ratio at 120 min, 5 μM of 2.2.
